Values of other authors, collected in patent publication US20260053764A1, “COMPOSITION FOR PREVENTING DETERIORATION IN COGNITIVE FUNCTION AND/OR IMPROVING COGNITIVE FUNCTION” (PHARMA FOODS INTERNATIONAL CO., LTD., priority 2020, published 2026).

System: cognitive function of elderly people
Details: continuous ingestion for a year; cited from earlier work

| SMILES | reasoning measured by the CNS Vital Signs examination method |
| --- | --- |
| CC1=C(/C=C/C(C)=C/C=C/C(C)=C/C=C/C=C(C)/C=C/C=C(C)/C=C/C2=C(C)C[C@@H](O)CC2(C)C)C(C)(C)C[C@H](O)C1 [zeaxanthin] | no improvement |
| CC1=C[C@H](O)CC(C)(C)[C@H]1/C=C/C(C)=C/C=C/C(C)=C/C=C/C=C(C)/C=C/C=C(C)/C=C/C1=C(C)C[C@@H](O)CC1(C)C [lutein] | no improvement |
